Test results taken from PMC2435557, “Developing and applying a gene functional association network for anti-angiogenic kinase inhibitor activity assessment in an angiogenesis co-culture model” (BMC Genomics, 2008).
“Also recorded” adds a separate entry of the source.

Legend:
[1] = system: HUVEC cord formation in co-culture with NHDF; test: HUVEC/NHDF cord formation co-culture assay (in vitro angiogenesis, high content imaging); format: cell-based, human; conditions: for EC50: Homo sapiens, cord area normalized to control group, mean of two to four independent experiments, sigmoidal dose-response fit, read-out: observed EC50 of cord formation inhibition (cord area)
Experimental: In vitro HUVEC cord formation co-culture was performed using the AngioKit commercially available from TCScellworks (Buckingham, UK) adapted to a 24-well format. To test HUVEC and NHDF passage dependence effects, the co-culture was done in house adapted to a 96-well format. Briefly, HUVEC cells were co-cultured onto human dermal fibroblast feeder layers in Optimised medium (TCScellworks, Buckingham, UK) for a total of about 12 days. Treatment started the day when the plates were received; usually three to four days after initial plating. Medium with or without growth factors or compounds was replenished every 2 to 3 days. Cells were fixed with 70% cold ethanol at the end of the culture and processed for anti-CD31/Alexa 488 immunofluorescence. To visualize feeder layer fibroblasts, some cultures were stained using a polyclonal antibody against Vimentin (Abcam, Cambridge, Massachusetts) along with an Alexa 568 conjugated secondary antibody to examine the feeder cell integrity. Nuclear staining was performed using Hoechst staining (Invitrogen Molecular Probe, Carlsbad, California).
Immunofluorescence stained co-culture plates were scanned using ArrayScan VTI (Cellomics, Pittsburgh, Pennsylvania) and the multi-parameter tube formation Bioapplication was used for quantification. Morphological measurements included cord length, width, area, percent connected cord, branching node and segment count, nuclei per cord, angiogenic index (expressed as the percentage of area covered by connected tube), etc. General cytotoxicity was monitored by examination of the nuclear staining of the feed layers.

[2] = design: method as in PMID 15919970; conditions: cited from earlier work

`O=C(Cc1ccc(-c2cnc3cc(-c4ccncc4)ccn23)cc1)Nc1cccc(C(F)(F)F)c1` [LY2401401] gave an EC50 [1] of 9.2 nM.

For `Clc1ccc(Nc2nnc(Cc3ccncc3)c3ccccc23)cc1` [PTK787], the EC50 [1] is given as 140 nM and the “outcome in clinical trials” value [2] is given as “failed to achieve statistical significance”.

With `CCN(CC)CCNC(=O)c1c(C)[nH]c(/C=C2\C(=O)Nc3ccc(F)cc32)c1C` [Sunitinib] the “effect on cord mass in length and area” value ([1]; 30 nM) was “significantly inhibited”, the “number of connected cords, branching nodes, and segment measurements” value ([1]; 30 nM) was “all significantly reduced” and the “number of nuclei per tube” value ([1]; 30 nM) was “significantly reduced”. The “effect on angiogenesis / cord formation” value ([1]; 30 nM compound, compared to medium control) was “significantly inhibited angiogenesis; also recorded: drastically inhibited cord formation” and the EC50 [1] was 39 nM.

For VEGF, the “effect on angiogenesis / cord formation” value ([1]; 20 ng/ml VEGF added to culture) was “significantly increased angiogenesis; also recorded: greatly enhanced”.
